Data as given in PubChem BioAssay AID623938 (Vanderbilt Specialized Chemistry Center, 2012).
Calls of active or inactive are those of the source. The rule behind the calls is not given here.

target: Muscarinic acetylcholine receptor M4 (Homo sapiens) (UniProt P08173); test: potency of ACh potentiation at hM4 – cell-based, calcium mobilization, human receptor, SAR follow-up (AID 623938); details: hM4 cells, PAM with EC20 ACh
Sequence (P08173 whole entry, looked up): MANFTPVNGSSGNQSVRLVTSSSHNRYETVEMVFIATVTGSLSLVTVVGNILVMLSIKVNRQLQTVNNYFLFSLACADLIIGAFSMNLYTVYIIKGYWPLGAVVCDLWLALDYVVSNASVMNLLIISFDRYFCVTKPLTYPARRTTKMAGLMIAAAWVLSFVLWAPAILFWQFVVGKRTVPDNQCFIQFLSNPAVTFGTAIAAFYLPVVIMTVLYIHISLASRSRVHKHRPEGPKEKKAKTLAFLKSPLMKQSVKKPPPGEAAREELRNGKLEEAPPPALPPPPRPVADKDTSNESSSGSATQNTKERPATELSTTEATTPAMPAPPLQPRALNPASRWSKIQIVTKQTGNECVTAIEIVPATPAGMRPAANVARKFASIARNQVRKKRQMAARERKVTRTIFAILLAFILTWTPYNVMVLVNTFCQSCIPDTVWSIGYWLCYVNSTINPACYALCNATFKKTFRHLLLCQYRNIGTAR

Row | SMILES | EC50 [nM] | outcome
1 | Cc1nc2sc(C(=O)NCCc3cccnc3)c(N)c2c(C)c1Cl | – | inactive
2 | Cc1nc2sc(C(=O)NCCc3ccncc3)c(N)c2c(C)c1Cl | 211 | –
3 | COc1ccc(C)c2sc(C(=O)NC3CC3)nc12 | > 10000 | –
4 | COc1ccc(C)c2sc(NC(=O)C3CCCCC3)nc12 | > 10000 | –
5 | Cc1nc2sc(C(=O)NCC3CCCCC3)c(N)c2c(C)c1Cl | 1090 | –
6 | Cc1nc2sc(C(=O)NC3CCOC3)c(N)c2c(C)c1Cl (centres undefined) | 29 | –
7 | COc1ccc(C)c2sc(NC(=O)C3CC3C)nc12 (centres undefined) | > 10000 | –
8 | CCCC(=O)Nc1nc2c(OC)ccc(C)c2s1 | > 10000 | –
9 | Cc1nc2sc(C(=O)NCc3ncccn3)c(N)c2c(C)c1Cl | 1070 | –
10 | Cc1nc2sc(C(=O)NC3CC3)c(N)c2c(C)c1Cl | 21 | –
11 | Cc1nc2sc(C(=O)NCc3cccc(F)c3F)c(N)c2c(C)c1Cl | 120 | –
12 | COc1ccc(C)c2sc(NC(=O)NC3CC3)nc12 | > 10000 | –
13 | COc1ccc(C)c2sc(NC(=O)C3CCCOC3)nc12 (centres undefined) | > 10000 | –
14 | COc1ccc(C)c2sc(NC(=O)C3CCC3)nc12 | > 10000 | –
15 | Cc1cc(CNC(=O)c2sc3nc(C)c(Cl)c(C)c3c2N)ccn1 | 57 | –
16 | Cc1nc2sc(C(=O)NCCC3CCCN3C)c(N)c2c(C)c1Cl (centres undefined) | 596 | –
17 | Cc1nc2sc(C(=O)NCc3cnccn3)c(N)c2c(C)c1Cl | 250 | –
18 | COCC(=O)Nc1nc2c(OC)ccc(C)c2s1 | > 10000 | –
19 | Cc1nc2sc(C(=O)NCc3cccnc3)c(N)c2c(C)c1Cl | 328 | –
20 | Cc1nc2sc(C(=O)NCc3ccncn3)c(N)c2c(C)c1Cl | 173 | –

Row | SMILES | EC50 [nM] | outcome
21 | COc1ccc(C)c2sc(NC(=O)N3CCCC3)nc12 | > 10000 | –
22 | Cc1nc2sc(C(=O)NCc3ccncc3)c(N)c2c(C)c1Cl | 37 | –
23 | Cc1nc2sc(C(=O)NC(C)C)c(N)c2c(C)c1Cl | 183 | –
24 | Cc1nc2sc(C(=O)NCc3nccs3)c(N)c2c(C)c1Cl | 174 | –
25 | Cc1nc2sc(C(=O)NCc3ccc(F)c(F)c3)c(N)c2c(C)c1Cl | – | active; potentiator
26 | COc1ccc(C)c2sc(NC(=O)NC3CCCC3)nc12 | 3580 | –
27 | Cc1nc2sc(C(=O)NC3CCCCC3)c(N)c2c(C)c1Cl | 188 | –
28 | Cc1nc2sc(C(=O)NCc3ccc4c(c3)OCO4)c(N)c2c(C)c1Cl | 170 | –
29 | Cc1nc2sc(C(=O)NC3COC3)c(N)c2c(C)c1Cl | 906 | –
30 | Cc1nc2sc(C(=O)NCc3ccnnc3)c(N)c2c(C)c1Cl | 222 | –
31 | Cc1nc2sc(C(=O)NC(C)c3cccnc3)c(N)c2c(C)c1Cl (centres undefined) | 601 | –
32 | COCCCNC(=O)c1sc2nc(C)c(Cl)c(C)c2c1N | 425 | –
33 | COc1ccc(C)c2sc(NC(=O)C3=COCCO3)nc12 | 1900 | –
34 | Cc1nc2sc(C(=O)NC(C)(C)C)c(N)c2c(C)c1Cl | 372 | –
35 | Cc1nc2sc(C(=O)NC3CCOCC3)c(N)c2c(C)c1Cl | 220 | –
36 | COc1ccc(C)c2sc(NC(=O)C3CC3)nc12 | > 10000 | –
37 | Cc1nc2sc(C(=O)NC(C)c3ccncc3)c(N)c2c(C)c1Cl (centres undefined) | 600 | –
38 | COc1ccc(C)c2sc(NC(=O)C(C)C)nc12 | > 10000 | –
39 | COc1ccc(C)c2sc(NC(=O)C3CCCC3)nc12 | > 10000 | –

Next, values leading:

Row | EC50 [nM] | outcome | SMILES
40 | 2500 | – | COc1ccc(C)c2sc(NC(=O)c3cccnc3)nc12
41 | 132 | – | Cc1ccc(CNC(=O)c2sc3nc(C)c(Cl)c(C)c3c2N)cc1
42 | 1140 | – | Cc1nc2sc(C(=O)NCc3ccc(C(F)(F)F)cc3)c(N)c2c(C)c1Cl
43 | 1400 | – | COc1ccc(C)c2sc(NC(=O)c3ccncc3)nc12
44 | 686 | – | Cc1nc2sc(C(=O)NCCc3ccccn3)c(N)c2c(C)c1Cl
45 | 293 | – | Cc1nc2sc(C(=O)NCc3ccccn3)c(N)c2c(C)c1Cl
46 | 89 | – | COc1ccc(CNC(=O)c2sc3nc(C)c(Cl)c(C)c3c2N)cc1
47 | 1410 | – | Cc1nc2sc(C(=O)NC(C)c3ccccn3)c(N)c2c(C)c1Cl (centres undefined)
48 | 745 | – | COc1ccc(C)c2sc(NC(=O)c3cnccn3)nc12
49 | – | active; potentiator | COc1ccc(NC(=O)c2sc3nc(C)c(Cl)c(C)c3c2N)cc1
50 | 133 | – | Cc1nc2sc(C(=O)NCc3ccccc3)c(N)c2c(C)c1Cl
51 | – | inactive | CCOc1ccc(NC(=O)c2sc3nc(C)c(Cl)c(C)c3c2N)cc1
52 | – | inactive | Cc1nc2sc(C(=O)Nc3ccccc3N(C)C)c(N)c2c(C)c1Cl
53 | – | active; potentiator | Cc1nc2sc(C(=O)NCc3ccc(Cl)cc3)c(N)c2c(C)c1Cl
54 | 2300 | – | COc1cccc2sc(NC(=O)c3ccncc3)nc12
55 | 154 | – | Cc1nc2sc(C(=O)NCc3ccccc3Cl)c(N)c2c(C)c1Cl
56 | 1430 | – | COc1ccc(C)c2sc(NC(=O)c3ccco3)nc12

same assay, conditions: hM4 cells, PAM with EC20 ACh, active compounds read high

Row | SMILES | % ACh max
57 | COc1ccc(C)c2sc(NCC3CC3)nc12 | inactive
58 | COc1ccc(C)c2sc(NC(=O)N3CCCCC3)nc12 | inactive
59 | COc1ccc(C)c2sc(C(=O)NC3COC3)nc12 | 36.4%
60 | COc1ccc(C)c2sc(C(=O)NC3CCCC3)nc12 | inactive
61 | COc1ccc(C)c2sc(NC(=O)CC(C)(C)C)nc12 | inactive
62 | COc1ccc(C)c2sc(NC(=O)c3cc(F)cc(F)c3)nc12 | inactive
63 | COc1ccc(C)c2sc(C(=O)NC3CCCCC3)nc12 | inactive
64 | O=C(Nc1nc2cccnc2s1)C1CCCC1 | inactive
65 | O=C(Nc1nc2cccnc2s1)C1CCC1 | inactive
66 | COc1ccc(C)c2sc(NC(=O)C3CCCCO3)nc12 (centres undefined) | 64.1%
67 | COc1ccc(C)c2sc(NS(=O)(=O)c3cnn(C)c3)nc12 | inactive
68 | COc1ccc(C)c2sc(NC(C)=O)nc12 | inactive
69 | COc1ccc(C)c2sc(NC(=O)C3=C(C)OCCO3)nc12 | inactive
70 | CCCCC1CC1C(=O)Nc1nc2c(OC)ccc(C)c2s1 (centres undefined) | inactive
71 | COc1ccc(C)c2sc(NC(=O)NC3CCC3)nc12 | inactive

More lines, now with the values ahead:

Row | % ACh max | SMILES
72 | inactive | COc1ccc(C)c2sc(C(=O)Nc3ccncc3)nc12
73 | inactive | COc1ccc(C)c2sc(NC(=O)c3ccccn3)nc12
74 | inactive | COc1ccc(C)c2sc(NC(=O)Nc3ccncc3)nc12
75 | inactive | COc1ccc(C)c2sc(NS(=O)(=O)c3ccc4occc4c3)nc12
76 | inactive | COc1ccc(C)c2sc(C(=O)NCc3ccncc3)nc12
77 | inactive | COc1ccc(C)c2sc(NC(=O)c3ccc(F)cc3F)nc12
78 | inactive | COc1ccc(C)c2sc(NC(=O)NCc3ccncc3)nc12
79 | inactive | O=C(Nc1nc2cccnc2s1)c1cnccn1
80 | inactive | COc1ccc2nc(NC(=O)c3ccncc3)sc2n1
81 | inactive | COc1ccc(C)c2sc(NS(=O)(=O)c3ccc(C(F)(F)F)cc3)nc12
82 | inactive | Clc1cccc(Nc2n[nH]c3ccccc23)c1
83 | inactive | COc1ccc(C)c2sc(NS(=O)(=O)c3cccc(C)c3)nc12
84 | inactive | COc1ccc(C)c2sc(C(=O)Nc3ccc(C)nc3)nc12
85 | inactive | COc1ccc(C)c2sc(NS(=O)(=O)c3cc(C)ccn3)nc12
86 | inactive | COc1ccc(C)c2sc(NC(=O)c3ccc(F)cc3)nc12
87 | inactive | COc1ccc(C)c2sc(NC(=O)c3ccc(C)cc3)nc12
88 | inactive | COc1ccc(C)c2sc(NC(=O)c3ccc(F)c(F)c3)nc12
89 | inactive | O=C(Nc1nc2cccnc2s1)c1cccnn1
90 | inactive | COc1ccc(C)c2sc(NS(=O)(=O)c3cccc(Cl)c3)nc12
91 | inactive | COc1ccc(C)c2sc(NS(=O)(=O)c3ccc(F)cc3F)nc12
92 | inactive | COc1ccc(C)c2sc(NC(=O)c3c(F)cccc3F)nc12
93 | inactive | O=C(Nc1nc2ccccc2s1)C1CCCCO1 (centres undefined)
94 | inactive | COc1ccc(C)c2sc(NC(=O)CCc3ccccc3)nc12
